This is an account of results in patent US10590121B2, “Kinase inhibitors and methods for making and using” (Rigel Pharmaceuticals, Inc., priority 2017, dated 2020).

The EC50 is the concentration at which the effect is half-maximal.

In assay [1] the test system is LPS induced IL-23 (p19/p40) in DC cells differentiated from human PBMC. Put plainly: IL23-p19 ELISA, dendritic cells (DC differentiated from human PBMC), IFNγ primed, LPS stimulated. In kind it is cell-based. The following applies: human PBMC-derived dendritic cells, 1 μg/ml LPS, 18 hours, 10 pt. In a few lines:
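Human PBMC-derived DCs (GM-CSF 100 ng/ml + IL-4 20 ng/ml, 7 days) were primed 24 h with IFNγ 50 ng/ml, pre-incubated 1 h with compound, then stimulated 18 h with LPS 1 μg/ml at 37° C. Supernatant IL-23 was measured by sandwich chemiluminescent ELISA (anti-p19 capture, anti-p40 detection); cytotoxicity was checked by CellTiter-Glo.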
(In general: An ELISA detects its analyte on a solid surface through an enzyme-linked reagent.)

Assay [2] relates to LPS induced IL23p19 in THP-1 cells. Description: LPS Induced IL23p19 in THP-1 Cells (with IFNγ Primed) Assay. The settings on record: Homo sapiens; THP-1 cells primed with IFNγ 50 ng/mL, 1 μg/mL LPS, 18 hours, 10 pt; read-out: IL23-p19 ELISA, THP1-IFNy, LPS, 10 pt EC50. Type of assay: cell-based. In a few lines:
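THP-1 cells were primed with IFNγ (50 ng/mL, ~18 h), pre-incubated 1 h with compound, then stimulated 18 h with 1 μg/mL LPS at 37° C. Supernatant IL-23p19 was measured by chemiluminescent sandwich ELISA, and EC50 was fitted. Toxicity was checked on the remaining cells with Cell Titer Glo.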

`O=C(Nc1cc(CC(=O)N2CCOCC2)ccc1N1CCCCC1)c1csc(-c2cn[nH]c2)n1` [I-65, N-(5-(2-morpholino-2-oxoethyl)-2-(piperidin-1-yl)phenyl)-2-(1H-pyrazol-4-yl)thiazole-4-carboxamide]: the EC50 was 124 nM in assay [1] and 195 nM in assay [2].
On the same counts, the results for `O=C(Nc1cc(CCN2CCOCC2)ccc1N1CCCCC1)c1cccc(-c2cn[nH]c2)n1` [I-66, N-(5-(2-morpholinoethyl)-2-(piperidin-1-yl)phenyl)-6-(1H-pyrazol-4-yl)picolinamide] are 41.8 nM and 92.4 nM.
In the same order, the values of `O=C(Nc1cc(CCN2CCOCC2)ccc1N1CCCCC1)c1ccc(-c2cn[nH]c2)o1` [I-67, N-(5-(2-morpholinoethyl)-2-(piperidin-1-yl)phenyl)-5-(1H-pyrazol-4-yl)furan-2-carboxamide] are 480 nM and 307 nM.
On the same counts, the results for `O=C(Nc1cc(CCN2CCOCC2)ccc1N1CCCCC1)c1csc(-c2cn[nH]c2)n1` [I-68, N-(5-(2-morpholinoethyl)-2-(piperidin-1-yl)phenyl)-2-(1H-pyrazol-4-yl)thiazole-4-carboxamide] are 47.6 nM and 62.5 nM.
For `CN(CCN1CCOCC1)c1ccc(NC(=O)c2cccc(-c3cn[nH]c3)n2)c(N2CCCCC2)c1` [I-69, N-(4-(methyl(2-morpholinoethyl)amino)-2-(piperidin-1-yl)phenyl)-6-(1H-pyrazol-4-yl)picolinamide], the EC50 came out at 2820 nM in assay [1] and 2630 nM in assay [2].
In the same order, the values of `CN(CCN1CCOCC1)c1ccc(NC(=O)c2ccc(-c3cn[nH]c3)o2)c(N2CCCCC2)c1` [I-70, N-(4-(methyl(2-morpholinoethyl)amino)-2-(piperidin-1-yl)phenyl)-5-(1H-pyrazol-4-yl)furan-2-carboxamide] are 1920 nM and 1440 nM.
On the same counts, the results for `CN(CCN1CCOCC1)c1ccc(NC(=O)c2csc(-c3cn[nH]c3)n2)c(N2CCCCC2)c1` [I-71, N-(4-(methyl(2-morpholinoethyl)amino)-2-(piperidin-1-yl)phenyl)-2-(1H-pyrazol-4-yl)thiazole-4-carboxamide] are 2280 nM and 19300 nM.
On to `O=C(Nc1ccc(NCCN2CCOCC2)cc1N1CCCCC1)c1cccc(-c2cn[nH]c2)n1` [I-72, N-(4-((2-morpholinoethyl)amino)-2-(piperidin-1-yl)phenyl)-6-(1H-pyrazol-4-yl)picolinamide], for which the EC50 turned out to be 1840 nM in assay [1] and 870 nM in assay [2].
On the same counts, the results for `O=C(Nc1ccc(NCCN2CCOCC2)cc1N1CCCCC1)c1ccc(-c2cn[nH]c2)o1` [I-73, N-(4-((2-morpholinoethyl)amino)-2-(piperidin-1-yl)phenyl)-5-(1H-pyrazol-4-yl)furan-2-carboxamide] are 175 nM and 82.7 nM.
Consider `O=C(Nc1ccc(NCCN2CCOCC2)cc1N1CCCCC1)c1csc(-c2cn[nH]c2)n1` [I-74, N-(4-((2-morpholinoethyl)amino)-2-(piperidin-1-yl)phenyl)-2-(1H-pyrazol-4-yl)thiazole-4-carboxamide], for which the EC50 in assay [1] is 104 nM; in assay [2], 51.4 nM.
